According to patent US10857180B2, “Pharmaceutical composition for improving health, cure abnormalities and degenerative disease, achieve anti-aging effect of therapy and therapeutic effect on mammals and method thereof” (priority 2014, dated 2020):

Experiments:
[1] = tested on: normal rat kidney cells (NRK line); assay: Immunocytochemistry of NRK cells; type: cell-based
Protocol: When making the immunocytochemistry (ICC) assay, cells on microscope glasses (cytospin preparations) were fixed in the solution (methanol+acetone 1:1) for 2 hours at t 20° C. and incubated with 1% solution of bovine serum albumin (BSA) for 20 minutes. Then the monoclonal antibodies-CD44 (Diagnostic BioSystems), E-cadherin (ThermoScientific), N-cadherin (NeoMarker, BioLegend), SLUG (GeneTex)—were applied for the time period specified by the manufacturer (30 to 60 minutes), after which the Poly Vue imaging system conjugated with peroxidase was used and the enzyme activity was detected using diaminobenzidine (ThermoScientific) as a substrate. After the immunocytochemical reaction the preparations were washed with water and counterstained with hematoxylin-eosin (for 15 to 30 seconds).
The results were analyzed by counting cells with expression (brown colored cells) using a light microscope, and were assessed using the classical H-Score method: S=1×A+2×B+3×C, where S is the H-Score index giving a range of 0 (protein is not detected) to 300 (high-level expression in 100% of the cells); A is the percentage of weakly staining cells, B is the percentage of moderately staining cells and C is the percentage of strongly staining cells.

MCF-7 cell line = assay: Cytogenetic analysis (micronucleus test) of MCF-7 cells; type: cell-based, human
Protocol: Advanced Micronucleus Test was used to assess the cytogenetic characteristics of cells after their exposure to the action of the test group of components.
Cytogenetic analysis was carried out after 48 hours of exposure of the cells to the action of the components. For cytogenetic analysis, the cells were incubated in hypotonic solution KCl (0.54%) (Reahim, Ukraine) for 40 minutes at +37° C. Then they were fixed with a mixture of methyl alcohol (Reahim, Ukraine) and acetic acid (Himlaborreaktiv, Ukraine) (3:1) with replacing the fixative three times. All fixed cell suspensions were applied on cold wet glasses, dried and stained with Giemsa stain (Sigma, Germany). The cytogenetic preparations were analyzed using a binocular microscope Sari Zeiss, AxioStarPlus (Germany) with magnification of x 1000. The following quantitative characteristics and stages of cell division were analyzed on the preparations: mitoses, cells with premature chromosome condensation (PCC), cells with micronuclei (CMN), apoptotic cells and cells with nuclear protrusions (protrusions) which were calculated for 1000 cells and expressed in per mille (%).

[2] = tested on: healthy human skin cells (HaCaT cell line); assay: Scratch assay, HaCaT cells; type: cell-based; settings: ^64Zn 25 mcg/ml; equal to control
Protocol: The cells of A-549, A-431, NRK, HaCaT, MM-4, normal fibroblasts (derived from the Bank of Cell Lines from human and animal tissues, R. E. Kavetsky Institute of Experimental Pathology, Oncology and Radiobiology, National Academy of Sciences of Ukraine) were cultured in complete culture medium RPMI 1640/DMEM (PAA, Austria) (depending on the cell type) supplemented with 10% fetal calf serum (PAA, Austria) and incubated in 5% CO2 humidified atmosphere at 37° C. The culture medium was replaced in 2 to 3 days and the cells were passaged in 4 to 5 days.
Analysis of the influence of the components under study on the cell migration rate was performed using the scratch assay method. […]
The plate was incubated in a CO2 incubator for additional 48 hours. After the cells formed a dense monolayer it was damaged (by making a “scratch”) and the growth medium was replaced to remove cell debris and smooth the edges of the “scratch.” The rate of cell migration was analyzed using an inverted microscope and by photographing cells in the area of injury. The migration activity of cells was fixed at several time points (depending on the cell line analyzed). The microphotomicrographs were analyzed and the cell incubation time needed to restore the monolayer was determined for all experimental groups. […]

In the case of `O=S(=O)([O-])[O-].[64Zn+2]` [^64Zn], the “phenotype of normal cells” value [1] is reported as “has not changed”, the “level of cells with micronuclei” value (MCF-7 cell line) is reported as “more than a two-fold increase” and the “time of monolayer healing” value [2] is reported as 36 h.
